What was measured:
Assay type in all cases: functional
[1] = tested on: CCRF-CEM; test: Cytotoxicity against human CCRF-CEM cells assessed as cell growth at 10^-5 M after 48 hrs by sulforhodamine B assay; settings: read-out: Activity
[2] = Cytotoxicity against human MOLT4 cells assessed as cell growth at 10^-5 M after 48 hrs by sulforhodamine B assay; settings: MOLT-4, 48 h, read-out: Activity
[3] = Cytotoxicity against human RPMI8226 cells assessed as cell growth at 10^-5 M after 48 hrs by sulforhodamine B assay; settings: RPMI-8226, 48 h, read-out: Activity
[4] = tested on: A549; test: Cytotoxicity against human A549 cells assessed as cell growth at 10^-5 M after 48 hrs by sulforhodamine B assay; settings: A549, 48 h, read-out: Activity
[5] = tested on: EKVX; test: Cytotoxicity against human EKVX cells assessed as cell growth at 10^-5 M after 48 hrs by sulforhodamine B assay; settings: read-out: Activity
[6] = Cytotoxicity against human HOP92 cells assessed as cell growth at 10^-5 M after 48 hrs by sulforhodamine B assay; settings: HOP-92, 48 h, read-out: Activity
[7] = tested on: NCI-H226; test: Cytotoxicity against human NCI-H226 cells assessed as cell growth at 10^-5 M after 48 hrs by sulforhodamine B assay; settings: NCI-H226, 48 h, read-out: Activity
[8] = tested on: NCI-H23; test: Cytotoxicity against human NCI-H23 cells assessed as cell growth at 10^-5 M after 48 hrs by sulforhodamine B assay; settings: NCI-H23, 48 h, read-out: Activity
[9] = tested on: NCI-H460; test: Cytotoxicity against human NCI-H460 cells assessed as cell growth at 10^-5 M after 48 hrs by sulforhodamine B assay; settings: NCI-H460, 48 h, read-out: Activity
[10] = Cytotoxicity against human HCC2998 cells assessed as cell growth at 10^-5 M after 48 hrs by sulforhodamine B assay; settings: HCC 2998, 48 h, read-out: Activity
[11] = Cytotoxicity against human HCT116 cells assessed as cell growth at 10^-5 M after 48 hrs by sulforhodamine B assay; settings: HCT-116, 48 h, read-out: Activity
[12] = Cytotoxicity against human HCT15 cells assessed as cell growth at 10^-5 M after 48 hrs by sulforhodamine B assay; settings: HCT-15, 48 h, read-out: Activity
[13] = Cytotoxicity against human SW620 cells assessed as cell growth at 10^-5 M after 48 hrs by sulforhodamine B assay; settings: SW-620, 48 h, read-out: Activity
[14] = Cytotoxicity against human SF268 cells assessed as cell growth at 10^-5 M after 48 hrs by sulforhodamine B assay; settings: SF-268, 48 h, read-out: Activity
[15] = Cytotoxicity against human SF295 cells assessed as cell growth at 10^-5 M after 48 hrs by sulforhodamine B assay; settings: SF-295, 48 h, read-out: Activity
[16] = Cytotoxicity against human SF539 cells assessed as cell growth at 10^-5 M after 48 hrs by sulforhodamine B assay; settings: SF-539, 48 h, read-out: Activity
[17] = Cytotoxicity against human SNB19 cells assessed as cell growth at 10^-5 M after 48 hrs by sulforhodamine B assay; settings: SNB-19, 48 h, read-out: Activity
[18] = Cytotoxicity against human SNB75 cells assessed as cell growth at 10^-5 M after 48 hrs by sulforhodamine B assay; settings: SNB-75, 48 h, read-out: Activity
[19] = Cytotoxicity against human LOXIMVI cells assessed as cell growth at 10^-5 M after 48 hrs by sulforhodamine B assay; settings: LOX IMVI, read-out: Activity
[20] = tested on: Malme-3M; test: Cytotoxicity against human MALME-3M cells assessed as cell growth at 10^-5 M after 48 hrs by sulforhodamine B assay; settings: read-out: Activity
[21] = tested on: M14; test: Cytotoxicity against human M14 cells assessed as cell growth at 10^-5 M after 48 hrs by sulforhodamine B assay; settings: M14, 48 h, read-out: Activity
[22] = tested on: MDA-MB-435; test: Cytotoxicity against human MDA-MB-435 cells assessed as cell growth at 10^-5 M after 48 hrs by sulforhodamine B assay; settings: MDA-MB-435, 48 h, read-out: Activity
[23] = tested on: SK-MEL-2; test: Cytotoxicity against human SK-MEL-2 cells assessed as cell growth at 10^-5 M after 48 hrs by sulforhodamine B assay; settings: SK-MEL-2, 48 h, read-out: Activity
[24] = Cytotoxicity against human UACC62 cells assessed as cell growth at 10^-5 M after 48 hrs by sulforhodamine B assay; settings: UACC-62, 48 h, read-out: Activity
[25] = Cytotoxicity against human IGROV1 cells assessed as cell growth at 10^-5 M after 48 hrs by sulforhodamine B assay; settings: IGROV-1, 48 h, read-out: Activity
[26] = Cytotoxicity against human OVCAR3 cells assessed as cell growth at 10^-5 M after 48 hrs by sulforhodamine B assay; settings: OVCAR-3, 48 h, read-out: Activity
[27] = Cytotoxicity against human OVCAR5 cells assessed as cell growth at 10^-5 M after 48 hrs by sulforhodamine B assay; settings: OVCAR-5, 48 h, read-out: Activity
[28] = Cytotoxicity against human OVCAR8 cells assessed as cell growth at 10^-5 M after 48 hrs by sulforhodamine B assay; settings: OVCAR-8, 48 h, read-out: Activity
[29] = tested on: 786-0; test: Cytotoxicity against human 786-0 cells assessed as cell growth at 10^-5 M after 48 hrs by sulforhodamine B assay; settings: 786-0, 48 h, read-out: Activity
[30] = tested on: A498; test: Cytotoxicity against human A498 cells assessed as cell growth at 10^-5 M after 48 hrs by sulforhodamine B assay; settings: A498, 48 h, read-out: Activity
[31] = tested on: SN12C; test: Cytotoxicity against human SN12C cells assessed as cell growth at 10^-5 M after 48 hrs by sulforhodamine B assay; settings: read-out: Activity
[32] = Cytotoxicity against human DU145 cells assessed as cell growth at 10^-5 M after 48 hrs by sulforhodamine B assay; settings: DU-145, 48 h, read-out: Activity
[33] = tested on: MCF7; test: Cytotoxicity against human MCF7 cells assessed as cell growth at 10^-5 M after 48 hrs by sulforhodamine B assay; settings: MCF7, 48 h, read-out: Activity
[34] = tested on: MDA-MB-231; test: Cytotoxicity against human MDA-MB-231 cells assessed as cell growth at 10^-5 M after 48 hrs by sulforhodamine B assay; settings: MDA-MB-231, 48 h, read-out: Activity
[35] = Cytotoxicity against human Hs 578T cells assessed as cell growth at 10^-5 M after 48 hrs by sulforhodamine B assay; settings: read-out: Activity
[36] = Cytotoxicity against human BT549 cells assessed as cell growth at 10^-5 M after 48 hrs by sulforhodamine B assay; settings: BT-549, 48 h, read-out: Activity
[37] = tested on: MDA-MB-468; test: Cytotoxicity against human MDA-MB-468 cells assessed as cell growth at 10^-5 M after 48 hrs by sulforhodamine B assay; settings: MDA-MB-468, 48 h, read-out: Activity

| SMILES | growth at 10 µM [1] | growth at 10 µM [2] | growth at 10 µM [3] | growth at 10 µM [4] | growth at 10 µM [5] | growth at 10 µM [8] | growth at 10 µM [9] | growth at 10 µM [10] | growth at 10 µM [11] | growth at 10 µM [12] | growth at 10 µM [13] | growth at 10 µM [14] | growth at 10 µM [15] | growth at 10 µM [16] | growth at 10 µM [17] | growth at 10 µM [18] | growth at 10 µM [19] | growth at 10 µM [20] | growth at 10 µM [21] | growth at 10 µM [22] | also measured |
| --- | --- | --- | --- | --- | --- | --- | --- | --- | --- | --- | --- | --- | --- | --- | --- | --- | --- | --- | --- | --- | --- |
| CC1=NN(c2cccc(Cl)c2)C(=O)/C1=C\c1cn(CC(O)Cn2cc(/C=C3\C(=O)N(c4cccc(Cl)c4)N=C3C)c3ccccc32)c2ccccc12 | 106% | 104% | 109% | 94.1% | 101% | 105% | 111% | 102% | 99.3% | 106% | 108% | 104% | 111% | 94.2% | 107% | 93.4% | 102% | 89.6% | 101% | 106% | growth at 10 µM [6]: 122%; growth at 10 µM [7]: 109%; growth at 10 µM [23]: 115%; growth at 10 µM [24]: 112%; growth at 10 µM [25]: 104%; growth at 10 µM [26]: 102%; growth at 10 µM [27]: 102%; growth at 10 µM [28]: 115%; growth at 10 µM [29]: 110%; growth at 10 µM [30]: 119%; growth at 10 µM [31]: 99.7%; growth at 10 µM [32]: 111%; growth at 10 µM [33]: 97.9%; growth at 10 µM [34]: 97.2%; growth at 10 µM [35]: 102%; growth at 10 µM [36]: 109%; growth at 10 µM [37]: 123% |
| COc1cc(/C=C2\C(=O)Nc3ccccc32)cc(OC)c1O | 26.7% | 0.62% | 46.6% | 67.9% | 110% | 66.4% | 40.1% | 78.8% | 46.4% | 61.6% | 31.5% | 78.3% | 60.6% | 68.8% | 83.7% | 23.1% | 36.5% | 118% | 53.6% | -25.3% | growth at 10 µM [23]: 50.4%; growth at 10 µM [24]: 72.1%; growth at 10 µM [25]: 70.2%; growth at 10 µM [26]: 46.9%; growth at 10 µM [27]: 112%; growth at 10 µM [28]: 78.5%; growth at 10 µM [29]: 83.2%; growth at 10 µM [30]: 52.5%; growth at 10 µM [31]: 77%; growth at 10 µM [32]: 92.5%; growth at 10 µM [33]: 30.8%; growth at 10 µM [34]: 63.1%; growth at 10 µM [35]: 18.4%; growth at 10 µM [36]: 74.8%; growth at 10 µM [37]: 20.4% |

Source: ChEMBL document CHEMBL3785084, “Rational modification of the lead molecule: Enhancement in the anticancer and dihydrofolate reductase inhibitory activity” (Bioorg Med Chem Lett, 2016)
